From patent publication US20090175882A1, “METHODS AND COMPOSITIONS FOR TREATING HYPERALGESIA” (IRM LLC, priority 2006, published 2009)
Entries after “also recorded” stand apart in the source; their conditions may differ. Each block holds one molecule with its values, some of them ahead of it.

Key:
mouse TRPA1 [1] = target: T1, mouse TRPA1 (Mus musculus, UniProt Q8BLA8); assay: Whole-cell electrophysiology of TRPA1-expressing CHO cells (pressure, hyperosmolarity, cold); type: cell-based; details: for block of TRPA1 currents in response to hyperosmolarity: bath application, 2 min stimulus
T1 construct: expressed in transfected cells; host or cells: CHO cells (tetracycline-induced for PatchXpress; mTRPA1-pcDNA5 named for the transient labelling experiment)
From the text: We tested if TRPA1 is activated by mechanical forces. The electrophysiological behavior of thermoTRP-expressing Chinese Hamster Ovary (CHO) cells was investigated with two different assays of mechanical stress—pressure application using the recording pipette and changes in external osmolarity.
(§1) Mechanosensory neurons are often classified as high- or low-threshold, characterizing responses to pain and touch, respectively. We tested the mechanical threshold of TRPA1 by applying a wide range of negative pipette pressures (FIG. 1C). TRPA1-expressing CHO cells are activated at −90 mmHg or higher, consistent with native high-threshold mechanical receptors involved in sensing pain (Cho et al., J Neurosci 22:1238, 2002). […] Gadolinium (Gd^3+) is considered a blocker of native mechanically-gated ion channels in animal tissues (Martinac et al., Physiol Rev 81:685, 2001). […] FM1-43 is a styryl dye that specifically labels sensory cells by entering through open transduction channels. […] Furthermore, it was observed that 10 μM of FM1 -43 was able to block cinnamaldehyde-induced currents in TRPA1-expressing CHO cells (n=8).
(§2) To ensure that the mechanical response we observe is not an artifact of heterologous expression system, we tested if native TRPA1-expressing neurons also respond to such stimuli. 5/6 cinnamaldehyde-sensitive (presumptive TRPA1-expressing) DRG neurons responded to an application of −200 mmHg of suction, while 0/21 cinnamaldehyde insensitive neurons responded (16 of 21 were capsaicin-sensitive) (FIG. 2B). Millimolar camphor was recently reported to inhibit basal currents and cold or agonist-activation of TRPA1.
Mammalian cell electrophysiology: ThermoTRP-expressing CHO cells (rat TRPV1, rat TRPV2, mouse TRPV3, rat TRPV4, mouse TRPM8, and mouse TRPA1), control CHO cells, and cultured rat DRG neurons were prepared as described in Story et al., Cell 112:819, 2003; and Bandell et al., Neuron 41:849, 2004. Electrophysiological recordings were performed as described in Bandell et al., Neuron 41:849, 2004. Briefly, CHO cells were clamped at −60 mV and 0.8 second ramps from −80 mV to +80 mV were run every 4 seconds. Currents from DRG neurons were recorded at −60 mV and for their current-voltage curve, 300 ms voltage step at +20 mV was used 40 ms before 800 ms ramp from -80 mV to +80 mV to minimize contamination of voltage gated Na^+ or Ca^2+ current. The pipette solution for temperature and hyperosmotic experiments consisted of (in mM) 140 CsCl, 5 EGTA, 10 HEPES, 2 MgATP, 0.2 NaGTP, titrated to pH 7.4 with CsOH. The base external solution for these experiments consisted of (in mM) 140 NaCl, 5KCl, 10 HEPES, 2CaCl2, 1MgCl2, titrated to pH 7.4 with NaOH. Mannitol was used to adjust osmolarity for hypertonic solutions. For mouse TRPV3 and rat TRPV2, external calcium was replaced with 5 mM EGTA. Gluconate was substituted for chloride in (±)-pressure and hypotonic experiments to eliminate the potential for endogenous swelling-activated chloride currents. For these experiments, pipette solution (295 mOsm) consisted of (in mM) 125 Cs-gluconate, 15CsCl, 5 EGTA, 10 HEPES, 2 MgATP, 0.2NaGTP, titrated to pH 7.4 with CsOH. The external solution consisted of (in mM) 90 Na-gluconate, 10 NaCl, 5 K-gluconate, 10 HEPES, 2 CaCl2, 1 MgCl2, titrated to pH 7.4 with NaOH. Osmolarity was adjusted with mannitol to 220 mOsm (hypotonic) or 298 mOsm 15 (isotonic). (±)-Pressure was hydrostatically delivered by the recording pipette using syringe pumping (Hamill et al., Annu Rev Physiol 59:621, 1997) and monitored through Pressure Monitor (World Precision Instruments). Warner temperature controller (TC-324B and CL-100) was used for the heating or cooling the perfused bath solutions. […] The number of cells (n) tested with -100 mmHg to −300 mmHg, ˜+100 mmHg, 450 mOsm, and 220 mOsm for each cell type, respectively, are: CHO cells, n=7, 14, 5, 12; TRPV1, n=6, 5, 7, 5; TRPV2, n=4, 5, 3, 5; TRPV3, n=3, 2, 3, 0; TRPM8, n=12, 4, 10, 0. […]

mouse TRPA1 [2] = target: T1, mouse TRPA1; assay: FLIPR calcium-influx assay, block of cinnamaldehyde activation, CHO cells; type: cell-based
TRPA1 [3] = target: T2, TRPA1 (Homo sapiens, UniProt O75762); assay: PatchXpress whole cell patch clamp, cinnamaldehyde-elicited current, CHO cells; type: cell-based; parameters: expressed in transfected cells; host or cells: CHO cell line; details: 10 μM FM1-43 with 100 μM cinnamaldehyde, −80 mV
Protocol: (§3) FM1-43 experiments: The FM1-43 labeling of CHO cells transfected with mTRPA1 was performed as described (Meyers et al., J Neurosci 23:4054, 2003). Briefly, CHO cells were transfected using Fugene (Roche) with mTRPA1-pcDNA5. For mock transfection CHO cells were treated with Fugene, but without any plasmid DNA. 24 hrs after transfection the cells were incubated for 5 min with 200 μM cinnamaldehyde in physiological buffer (consisted of (in mM) 130 NaCl, 3 KCl, 2 MgCl2, 2 CaCl2, 10 HEPES, 10 glucose) at room temperature, followed by 3 min with 10 μM of FM1-43. The cells were then washed thoroughly and imaged. mTRPA1 and hTRPA1-expressing CHO cells were tested in whole cell patch clamp configuration using the PatchXpress (Axon Instruments) for the effect of the FM143 dye on TRPA1 activation. Cells were plated the day before testing and induced with 0.5 μg/ml tetracycline as previously described in Story et al., Cell 112:819, 2003. Immediately prior to testing, cells were trypsinized and resuspended in calcium-free DMEM media (Invitrogen). Recordings were performed in extracellular solution containing (in mM) 2.67 KCl, 1.47 KH2PO4, 0.5 MgCl2, 138 NaCl, 8 Na2HPO4, 5.6 glucose. The intracellular solution contained (in mM) 140 KCl, 10 HEPES, 20 glucose, 10 HEDTA and 1 μM buffered free Calcium. Holding currents at −80 mV were used for quantitative analysis of TRPA1 activation and inhibition. […]
Target sequence in this assay (O75762 whole entry): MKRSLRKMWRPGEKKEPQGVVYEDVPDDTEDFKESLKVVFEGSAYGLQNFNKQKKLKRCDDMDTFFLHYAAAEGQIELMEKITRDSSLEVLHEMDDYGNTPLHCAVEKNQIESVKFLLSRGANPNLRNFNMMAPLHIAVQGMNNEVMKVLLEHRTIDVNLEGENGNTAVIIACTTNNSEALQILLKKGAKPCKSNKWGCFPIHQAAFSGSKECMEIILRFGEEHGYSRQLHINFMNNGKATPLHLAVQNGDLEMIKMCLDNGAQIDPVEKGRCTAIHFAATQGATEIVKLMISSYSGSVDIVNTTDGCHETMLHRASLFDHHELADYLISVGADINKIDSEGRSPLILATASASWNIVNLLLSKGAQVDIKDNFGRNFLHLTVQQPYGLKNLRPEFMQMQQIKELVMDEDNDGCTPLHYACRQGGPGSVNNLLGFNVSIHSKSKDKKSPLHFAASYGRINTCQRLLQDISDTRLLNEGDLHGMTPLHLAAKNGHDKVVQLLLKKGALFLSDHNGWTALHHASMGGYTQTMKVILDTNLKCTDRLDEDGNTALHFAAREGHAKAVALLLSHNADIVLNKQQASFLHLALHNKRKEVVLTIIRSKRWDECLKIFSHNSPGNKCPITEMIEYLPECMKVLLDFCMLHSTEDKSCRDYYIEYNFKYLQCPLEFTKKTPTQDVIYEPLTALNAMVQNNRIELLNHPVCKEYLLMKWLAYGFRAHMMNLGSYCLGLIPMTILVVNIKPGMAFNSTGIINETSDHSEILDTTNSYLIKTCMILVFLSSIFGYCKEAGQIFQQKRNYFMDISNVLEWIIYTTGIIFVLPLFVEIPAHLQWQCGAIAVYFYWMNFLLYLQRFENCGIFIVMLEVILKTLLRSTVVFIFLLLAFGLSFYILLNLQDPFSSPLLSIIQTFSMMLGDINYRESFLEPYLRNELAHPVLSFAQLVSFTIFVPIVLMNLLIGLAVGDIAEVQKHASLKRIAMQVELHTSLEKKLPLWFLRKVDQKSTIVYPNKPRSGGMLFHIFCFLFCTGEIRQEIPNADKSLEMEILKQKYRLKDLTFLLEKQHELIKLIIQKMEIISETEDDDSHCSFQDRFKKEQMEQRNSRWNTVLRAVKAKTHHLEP

mTRPA1 = target: T3, mTRPA1 (Mus musculus, UniProt Q8BLA8); assay: as above; type: cell-based
T3 construct: expressed in transfected cells; host or cells: CHO cells (tetracycline-induced for PatchXpress; mTRPA1-pcDNA5 named for the transient labelling experiment)
From the text: as §1
as §3, with “Recordings were performed in extracellular solution containing (in mM) 2.67 KCl, 1.47 KH2PO4, 0.5 MgCl2, 138 NaCl, 8 Na2HPO4, 5.6 glucose. The intracellular solution contained (in mM) 140 KCl, 10 HEPES, 20 glucose, 10 HEDTA and 1 μM buffered free Calcium.” left out

cultured rat DRG neurons = assay: Current response of cultured DRG neurons to negative pressure; type: cell-based; details: 2 mM camphor, −150 mmHg
From the text: as §2
Mammalian cell electrophysiology: ThermoTRP-expressing CHO cells (rat TRPV1, rat TRPV2, mouse TRPV3, rat TRPV4, mouse TRPM8, and mouse TRPA1), control CHO cells, and cultured rat DRG neurons were prepared as described in Story et al., Cell 112:819, 2003; and Bandell et al., Neuron 41:849, 2004. Electrophysiological recordings were performed as described in Bandell et al., Neuron 41:849, 2004. […] Currents from DRG neurons were recorded at −60 mV and for their current-voltage curve, 300 ms voltage step at +20 mV was used 40 ms before 800 ms ramp from -80 mV to +80 mV to minimize contamination of voltage gated Na^+ or Ca^2+ current. […] (±)-Pressure was hydrostatically delivered by the recording pipette using syringe pumping (Hamill et al., Annu Rev Physiol 59:621, 1997) and monitored through Pressure Monitor (World Precision Instruments). […]

[4] = tested on: TRPV1, TRPV2, TRPV3, TRPV4, or TRPM8; assay: Effect on other thermoTRPs (summary statement); type: cell-based
From the text: TRPA1 inhibitors that can be employed in the practice of the present invention include compounds that interferes with the expression, modification, regulation or activation of TRPA1, or compounds that down-regulates one or more of the normal biological activities of TRPA1 (e.g., its ion channel). […] Various TRPA1-specific antagonists can be used in the instant invention. Some of these TRPA1-specific inhibitors are identified by the present inventors, as described in the Examples below. These compounds can be obtained commercially or are otherwise described in the art. One such compound is Compound 18, (Z)-4-(4-chlorophynyl)-3-methylbut-3-en-2-oxime. This compound can be obtained commercially from Maybridge (Cornwall, UK). Another example is Compound 40, N,N′-Bis-(2-hydroxybenzyl)-2,5-diamino-2,5-dimethylhexane, which has been described in U.S. Pat. No. 4,129,556. […] Thus, these two compounds can be readily used to treat or alleviate mechanical hyperalgesia as described in more detail below.

[5] = tested on: CFA-induced heat hyperalgesia; assay: CFA-induced heat hyperalgesia; type: in vivo; details: mice
[6] = tested on: BK-induced nociceptive mechanical behaviours; assay: Bradykinin-induced mechanical hyperalgesia (Von Frey threshold); type: in vivo; details: short term hyperalgesia model, 1 mM coinjected, mice
[7] = tested on: bradykinin (BK)-induced heat hyperalgesia; assay: Bradykinin-induced heat hyperalgesia; type: in vivo; details: mice
[8] = tested on: CFA-induced mechanical hyperalgesia; assay: CFA-induced mechanical hyperalgesia (Von Frey threshold); type: in vivo; details: injected into hindpaw 24 hours after CFA, mice
TRPA1 [9] = target: T2, TRPA1; assay: TRPA1 block, test not specified; details: summary statement
Target sequence in this assay (O75762 whole entry, species assumed): as the sequence (O75762 whole entry) above

T3 sequence (Q8BLA8 whole entry): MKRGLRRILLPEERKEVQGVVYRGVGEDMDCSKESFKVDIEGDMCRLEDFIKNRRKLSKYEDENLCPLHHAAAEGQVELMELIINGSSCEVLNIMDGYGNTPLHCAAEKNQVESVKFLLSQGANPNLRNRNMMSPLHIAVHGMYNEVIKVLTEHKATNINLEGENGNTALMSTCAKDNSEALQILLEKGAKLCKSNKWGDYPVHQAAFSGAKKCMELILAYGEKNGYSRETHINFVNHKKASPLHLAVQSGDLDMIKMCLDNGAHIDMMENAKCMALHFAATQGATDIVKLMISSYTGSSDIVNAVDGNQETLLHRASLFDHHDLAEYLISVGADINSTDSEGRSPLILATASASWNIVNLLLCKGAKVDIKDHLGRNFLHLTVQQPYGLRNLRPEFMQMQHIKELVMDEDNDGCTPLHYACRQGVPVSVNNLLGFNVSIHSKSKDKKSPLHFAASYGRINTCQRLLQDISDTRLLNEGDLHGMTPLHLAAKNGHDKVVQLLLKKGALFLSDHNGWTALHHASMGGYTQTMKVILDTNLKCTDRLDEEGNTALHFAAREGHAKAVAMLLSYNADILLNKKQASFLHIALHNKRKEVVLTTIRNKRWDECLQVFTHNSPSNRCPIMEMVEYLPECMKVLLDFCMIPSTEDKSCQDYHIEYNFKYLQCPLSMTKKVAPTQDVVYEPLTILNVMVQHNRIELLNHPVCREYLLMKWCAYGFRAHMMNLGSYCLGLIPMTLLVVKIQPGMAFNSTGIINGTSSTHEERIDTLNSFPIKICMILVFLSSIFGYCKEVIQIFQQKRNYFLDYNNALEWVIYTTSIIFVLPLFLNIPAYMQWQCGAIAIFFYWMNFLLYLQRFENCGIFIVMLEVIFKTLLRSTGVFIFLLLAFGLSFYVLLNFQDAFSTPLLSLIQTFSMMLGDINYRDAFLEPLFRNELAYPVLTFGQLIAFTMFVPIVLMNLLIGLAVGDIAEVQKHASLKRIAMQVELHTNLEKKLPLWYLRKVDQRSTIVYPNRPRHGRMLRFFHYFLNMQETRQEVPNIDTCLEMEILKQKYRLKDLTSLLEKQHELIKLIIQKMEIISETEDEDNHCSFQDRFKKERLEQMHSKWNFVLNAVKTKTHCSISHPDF
T1 sequence (Q8BLA8 whole entry): as above

- cells in which an inhibition of the current was observed (TRPA1 [3]): 3/4
- block of cinnamaldehyde-induced currents in TRPA1-expressing CHO cells (mTRPA1; 10 μM FM1-43): able to block
- cells in which an inhibition of the current was observed (mTRPA1; 10 μM FM1-43 with 100 μM cinnamaldehyde, −80 mV): 7/8
- block in current, on average (mTRPA1; 10 μM FM1-43 with 100 μM cinnamaldehyde, average stated for mTRPA1 and hTRPA1 cells together): 50%
Compound: CCCCN(CCCC)c1ccc(/C=C/c2cc[n+](CCC[N+](CC)(CC)CC)cc2)cc1.[Br-].[Br-] [FM1-43]

- block of current activation of TRPA1 upon (−) pressure in CHO cells (mouse TRPA1 [1]; 2 mM camphor, −100 mmHg): completely block
Compound: CC12CCC(CC1=O)C2(C)C (stereo not shown) [camphor]
- block of current response of DRG neurons to (−) pressure (cultured rat DRG neurons): completely blocks; also recorded: fully inhibited

More lines, now with the values behind:

Compound: N.N.N.N.N.N.N.N.N.N.N.N.N.N.[Cl-].[Cl-].[Cl-].[Cl-].[Cl-].[Cl-].[O-2].[O-2].[Ru+3].[Ru+3].[Ru+4] [ruthenium red]
- block of mechanosensitive TRPA1 currents upon hyperosmolarity (mouse TRPA1 [1]; 5 μM ruthenium red, 450 mOsm): completely blocked
- block of mechanosensitive TRPA1 currents upon (−) pressure (mouse TRPA1 [1]; 5 μM ruthenium red, -100 mmHg): completely blocked

Compound: O=CC=Cc1ccccc1 [cinnamaldehyde]
- EC50 (mouse TRPA1 [2]; control (no compound 18)): 50 µM
- EC50 (mouse TRPA1 [2]; with 25 μM compound 18): 220 µM

Compound: [Gd+3] [Gd3+, Gadolinium]
- block of TRPA1 currents in response to negative pressure (mouse TRPA1 [1]; 10 μM Gd3+, -100 mmHg): completely and reversibly blocked
- block of TRPA1 currents in response to hyperosmolarity (mouse TRPA1 [1]; 10 μM Gd3+, 450 mOsm): completely blocks
- block of TRPA1 currents in response to hyperosmolarity (mouse TRPA1 [1]; 10 μM Gd3+, 450 mOsm, listed as Gd^3+): completely and reversibly blocked

Compound: CC(C)(CCC(C)(C)NCc1ccccc1O)NCc1ccccc1O [Compound 40, N,N′-Bis-(2-hydroxybenzyl)-2,5-diamino-2,5-dimethylhexane]
- effect on activation or activities of the other thermoTRPs [4]: little or no effect
- CFA-induced heat hyperalgesia [5]: very similar results
- BK-induced mechanical nociceptive behavior [6]: very similar results
- BK-induced heat hyperalgesia [7]: very similar results
- CFA-induced mechanical hyperalgesia [8]: very similar results
- inhibition of TRPA1 activation or function (TRPA1 [9]): specifically inhibit TRPA1 activation or function; also recorded: blocks TRPA1
